The source of these data is publication PMC10485887, “PET Evaluation of the Novel F-18 Labeled Reversible Radioligand [^18F]GEH200449 for Detection of Monoamine Oxidase-B in the Non-Human Primate Brain” (ACS Chemical Neuroscience, 2023).

Where “and” joins values, the source holds several entries; their conditions need not be identical. Identical values can stand only once. Like-named read-outs stand apart in the source and are kept apart here.

Assay [1] deals with MAO-B. It counts as in vivo, Macaca fascicularis. As to the method: Each PET measurement was performed on a separate experimental day. Experiments conducted in the same NHP were separated by at least 6 weeks. Baseline PET measurements were initially undertaken in each of the five NHPs.
Time curves for regional [^18F]GEH200449 binding at baseline were analyzed by kinetic modeling using 1-TC and 2-TC models,[32] and VT as outcome measures. Akaike information criterion[33] and F statistics were applied to select the preferred model. Regional estimates of VT for [^18F]GEH200449 were also obtained using the Logan linear graphical method[34] with t* fixed at 40 min. The analyses were performed using the kinetic modeling tool in PMOD v. 4.3. Occupancy at [^18F]GEH200449 binding sites was estimated based on regional VT values obtained by the Logan method at baseline and after drug administration according to a graphical procedure described in the literature.[22]

Assay [2] deals with MAO-B. On the set-up: method as in PMID 31589885. As to conditions: cited from earlier work.

`C#CCN[C@@H]1CCc2ccccc21` [rasagiline, N-Propargyl-1R(+)-Aminoindan]: the “occupancy at MAO-B ([^18F]GEH200449 binding sites)” value with MAO-B [1] (0.75 mg/kg IV, 45 min before radioligand, NHP #4, graphical analysis of VT) was 97% and > 80%. Also, the “inhibitory effect on [^18F]GEH200449 binding, dose dependency” value in the assay on MAO-B [1] (0.25 and 0.75 mg/kg pretreatment, NHP #4) is reported as “more pronounced after the higher dose”. Besides, in the assay on MAO-B [1] (pretreatment 45 min before radioligand injection), the “effect on [^18F]GEH200449 regional radioactivity” value is “inhibited”.
Regarding `N#Cc1cc(F)cc(-c2nc(-c3ccc(F)cn3)no2)c1` [AZD9272], in the assay with MAO-B [1] (0.15 mg/kg, 15 min before PET, NHP #3), the “effect on [^18F]GEH200449 regional radioactivity” value is “reduction”. Besides, in the assay on MAO-B [2], the “affinity toward MAO-B” value is reported as “high affinity”.
As for `CN1CC(=O)NC1=NC(=O)Nc1cccc(Cl)c1` [fenobam], in the assay on MAO-B [1] (1.0 mg/kg, 15 min before PET, NHP #5), the “effect on [^18F]GEH200449 regional radioactivity” value is on record as “reduction”. The “affinity toward MAO-B” value in the assay with MAO-B [2] is listed as “high affinity”.
